Tests used:
[1] = IOB value of the oil component; type: physicochemical; details: obtained oil component
[2] = Solubility of a slightly soluble triazine-type ultraviolet absorbent in oil components at 0° C.; type: physicochemical; details: concentration (mass percentage) in a saturated solution at 0° C. of 2,4-bis{[4-(2-ethylhexyloxy)-2-hydroxy]phenyl}-6-(4-methoxyphenyl)1,3,5-triazine in the oil component
Source text: (§1) For the slightly soluble ultraviolet absorbent, a triazine-type ultraviolet absorbent 2,4-bis{[4-(2-ethylhexyloxy)-2-hydroxy]phenyl}-6-(4-methoxyphenyl)1,3,5-triazine was used.
This oil component is a mixture of alkyl benzoates having 12-15 carbon atoms.
as §1

Compound	IOB value [1]	Solubility ([2]; Table 1-4) [%]	Solubility ([2]; Table 2-1) [%]
CCCCC(CC)COC(=O)c1ccccc1 (centres unmarked) [2-ethylhexyl benzoate]	0.26		
CC(CCOC(=O)c1ccccc1)CC(C)(C)C (centres unmarked) [3,5,5-trimethylhexyl benzoate]	0.26		
CC(C)CCCC(C)CCOC(=O)c1ccccc1 (centres unmarked) [3,7-dimethyloctyl benzoate]	0.23		
C[Si]1(C)O[Si](C)(C)O[Si](C)(C)O[Si](C)(C)O[Si](C)(C)O1 [Decamethyl cyclopentane siloxane]		0	0

— patent publication US7445790B2, “External preparations for skin” (Shiseido Company, Ltd., priority 2002, dated 2008)
